Measurements from patent US10100049B2, “JAK kinase inhibitor compounds for treatment of respiratory disease” (THERAVANCE BIOPHARMA R&D IP, LLC, priority 2015, dated 2018).

Columns and labels:
[1] = target: JAK2 (Homo sapiens (Human), UniProt O60674)
[2] = test system: IL-13 induced STAT6 phosphorylation in BEAS-2B human lung epithelial cells; assay: AlphaScreen cellular potency assay, IL-13 induced STAT6 phosphorylation in BEAS-2B cells; assay type: cell-based; conditions: IL-13 induced STAT6 phosphorylation, BEAS-2B cells; for IC50: Homo sapiens, read-out: BEAS-2B pIC50 (converted)
Protocol: The AlphaScreen JAM cellular potency assay was carried out by measuring interleukin-13 (IL-13, R&D Systems) induced STAT6 phosphorylation in BEAS-2B human lung epithelial cells (ATCC). The anti-STAT6 antibody (Cell Signaling Technologies) was conjugated to AlphaScreen acceptor beads (Perkin Elmer), while the anti-pSTAT6 (pTyr641) antibody (Cell Signaling Technologies) was biotinylated using EZ-Link Sulfo-NHS-Biotin (Thermo Scientific).
BEAS-2B cells were grown at 37° C. in a 5% CO2 humidified incubator in 50% DMEM/50% F-12 medium (Life Technologies) supplemented with 10% FBS (Hyclone), 100 U/mL penicillin, 100 μg/mL streptomycin (Life Technologies), and 2 mM GlutaMAX (Life Technologies). On day 1 of the assay, cells were seeded at a 7,500 cells/well density in white poly-D-lysine-coated 384-well plates (Corning) with 25 μL medium, and were allowed to adhere overnight in the incubator. On day 2 of the assay, the medium was removed and replaced with 12 μL of assay buffer (Hank's Balanced Salt Solution/HBSS, 25 mM HEPES, and 1 mg/ml bovine serum albumin/BSA) containing dose-responses of test compounds. Compounds were serially diluted in DMSO and then diluted another 1000-fold in media to bring the final DMSO concentration to 0.1%. Cells were incubated with test compounds at 37° C. for 1 h, and followed by the addition of 12 μl of pre-warmed IL-13 (80 ng/ml in assay buffer) for stimulation. After incubating at 37° C. for 30 min, the assay buffer (containing compound and IL-13) was removed, and 10 μl of cell lysis buffer (25 mM HEPES, 0.1% SDS, 1% NP-40, 5 mM MgCl2, 1.3 mM EDTA, 1 mM EGTA, and supplement with Complete Ultra mini protease inhibitors and PhosSTOP from Roche Diagnostics). The plates were shaken at ambient temperature for 30 min before the addition of detection reagents. A mixture of biotin-anti-pSTAT6 and anti-STAT6 conjugated acceptor beads was added first and incubated at ambient temperature for 2 h, followed by the addition of streptavidin conjugated donor beads (Perkin Elmer). After a minimum of 2 h incubation, the assay plates were read on the EnVision plate reader.
Results were expressed as the negative logarithm of the IC50 value, pIC50.

[3] = target: Tyk2 (Homo sapiens (Human), UniProt P29597); assay: LanthaScreen JAK biochemical assay (Tyk2); conditions: read-out: Tyk 2 (PKi); further: ATP at Km 10 µM
Chain of Tyk2 (P29597 whole entry): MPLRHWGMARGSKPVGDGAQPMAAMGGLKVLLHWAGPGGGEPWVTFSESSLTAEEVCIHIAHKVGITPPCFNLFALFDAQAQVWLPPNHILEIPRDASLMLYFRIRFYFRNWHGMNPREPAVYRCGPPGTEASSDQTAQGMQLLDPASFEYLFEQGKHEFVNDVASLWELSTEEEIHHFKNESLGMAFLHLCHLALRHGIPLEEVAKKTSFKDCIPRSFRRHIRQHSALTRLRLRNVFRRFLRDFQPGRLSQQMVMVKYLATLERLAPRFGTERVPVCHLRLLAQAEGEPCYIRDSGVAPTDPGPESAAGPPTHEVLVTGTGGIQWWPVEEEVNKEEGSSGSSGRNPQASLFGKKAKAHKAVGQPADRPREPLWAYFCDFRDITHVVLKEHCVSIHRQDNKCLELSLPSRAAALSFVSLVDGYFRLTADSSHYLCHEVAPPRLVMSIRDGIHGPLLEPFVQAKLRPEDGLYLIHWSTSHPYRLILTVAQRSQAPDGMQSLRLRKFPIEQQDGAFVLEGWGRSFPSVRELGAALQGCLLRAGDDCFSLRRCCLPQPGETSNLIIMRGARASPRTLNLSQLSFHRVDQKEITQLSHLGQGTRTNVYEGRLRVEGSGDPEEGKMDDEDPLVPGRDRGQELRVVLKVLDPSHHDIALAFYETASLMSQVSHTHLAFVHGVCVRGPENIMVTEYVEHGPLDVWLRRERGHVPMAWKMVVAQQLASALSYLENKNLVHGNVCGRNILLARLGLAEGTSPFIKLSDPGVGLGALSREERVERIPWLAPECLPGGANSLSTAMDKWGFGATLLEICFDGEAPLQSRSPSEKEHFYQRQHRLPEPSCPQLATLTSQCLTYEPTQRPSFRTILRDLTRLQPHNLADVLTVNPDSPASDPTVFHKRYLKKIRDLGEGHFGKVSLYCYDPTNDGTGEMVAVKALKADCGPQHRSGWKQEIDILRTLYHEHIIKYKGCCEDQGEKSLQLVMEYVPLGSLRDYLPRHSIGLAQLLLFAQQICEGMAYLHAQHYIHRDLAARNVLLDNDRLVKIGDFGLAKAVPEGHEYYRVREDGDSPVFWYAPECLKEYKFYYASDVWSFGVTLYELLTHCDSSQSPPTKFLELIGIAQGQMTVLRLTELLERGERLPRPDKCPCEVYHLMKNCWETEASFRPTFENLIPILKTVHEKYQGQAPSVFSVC

[4] = test system: Alternaria-induced BALF eosinophils; assay: Murine model of Alternaria alternata-induced eosinophilic inflammation of the lung; assay type: in vivo; conditions: mouse; maximum statistically significant inhibition; 0.1-1.0 mg/mL, 50 μL oropharyngeal aspiration; BALF 48 h after alternaria
Protocol: Airway eosinophilia is a hallmark of human asthma. Alternaria alternata is a fungal aeroallergen that can exacerbate asthma in humans and induces eosinophilic inflammation in the lungs of mice (Havaux et al. Clin Exp Immunol. 2005, 139(2):179-88).
Seven- to nine-week old male C57 mice from Taconic were used in the study. On the day of study, animals were lightly anesthetized with isoflurane and administered either vehicle or test compound (0.1-1.0 mg/mL, 50 μL total volume over several breaths) via oropharyngeal aspiration. Animals were placed in lateral recumbency post dose and monitored for full recovery from anesthesia before being returned to their home cage. One hour later, animals were once again briefly anesthetized and challenged with either vehicle or alternaria extract (200 ug total extract delivered, 50 μL total volume) via oropharyngeal aspiration before being monitored for recovery from anesthesia and returned to their home cage. Forty-eight hours after alternaria administration, bronchoalveolar lavage fluid (BALF) was collected and eosinophils were counted in the BALF using the Advia 120 Hematology System (Siemens).
Selected compounds of the invention were tested in this alternaria assay. Activity in the model is evidenced by a decrease in the level of eosinophils present in the BALF of treated animals at forty-eight hours compared to the vehicle treated, alternaria challenged control animals. Data are expressed as percent inhibition of the vehicle treated, alternaria challenged BALF eosinophils response. To calculate percent inhibition, the number of BALF eosinophils for each condition is converted to percent of the average vehicle treated, alternaria challenged BALF eosinophils and subtracted from one-hundred percent.

[5] = test system: IL-13 induced pSTAT6 in lung tissue; assay: Murine model of IL-13 induced pSTAT6 induction in lung tissue; assay type: in vivo; conditions: mouse lung, 0.5 mg/mL, 50 μL oral aspiration, IL-13 challenge 4 h after dosing, lungs collected 1 h later; for inhibition in vivo at 500 µg/mL: read-out: pSTAT6 inhibition Assay 5
Protocol: Il-13 is an important cytokine underlying the pathophysiology of asthma (Kudlacz et al. Eur. J. Pharmacol, 2008, 582, 154-161). IL-13 binds to cell surface receptors activating members of the Janus family of kinases (JAK) which then phosphorylate STAT6 and subsequently activates further transcription pathways. In the described model, a dose of IL-13 was delivered locally into the lungs of mice to induce the phosphorylation of STAT6 (pSTAT6) which is then measured as the endpoint.
Adult balb/c mice from Harlan were used in the assay. On the day of study, animals were lightly anesthetized with isoflurane and administered either vehicle or test compound (0.5 mg/mL, 50 μL total volume over several breaths) via oral aspiration. Animals were placed in lateral recumbency post dose and monitored for full recovery from anesthesia before being returned to their home cage. Four hours later, animals were once again briefly anesthetized and challenged with either vehicle or IL-13 (0.03 μg total dose delivered, 50 μL total volume) via oral aspiration before being monitored for recovery from anesthesia and returned to their home cage. One hour after vehicle or IL-13 administration, lungs were collected for both pSTAT6 detection using an anti-pSTAT6 ELISA (rabbit mAb capture/coating antibody; mouse mAb detection/report antibody: anti-pSTAT6-pY641; secondary antibody: anti-mouse IgG-HRP) and analyzed for total drug concentration as described above in Assay 4.
Selected compounds of the invention were tested in the assay. Activity in the model is evidenced by a decrease in the level of pSTAT6 present in the lungs of treated animals at 5 hours compared to the vehicle treated, IL-13 challenged control animals. The difference between the control animals which were vehicle-treated, IL-13 challenged and the control animals which were vehicle-treated, vehicle challenged dictated the 0% and 100% inhibitory effect, respectively, in any given experiment.

[6] = Pharmacokinetics in plasma and lung in mouse; assay type: in vivo; conditions: oral aspiration 0.2 mg/mL 50 uL, lung AUC (μg hr/g) / plasma AUC (μg hr/mL)
Protocol: Plasma and lung levels of test compounds and ratios thereof were determined in the following manner. BALB/c mice from Charles River Laboratories were used in the assay. Test compounds were individually formulated in 20% propylene glycol in pH 4 citrate buffer at a concentration of 0.2 mg/mL and 50 uL of the dosing solution was introduced into the trachea of a mouse by oral aspiration. At various time points (typically 0.167, 2, 6, 24 hr) post dosing, blood samples were removed via cardiac puncture and intact lungs were excised from the mice. Blood samples were centrifuged (Eppendorf centrifuge, 5804R) for 4 minutes at approximately 12,000 rpm at 4° C. to collect plasma. Lungs were padded dry, weighed, and homogenized at a dilution of 1:3 in sterile water. Plasma and lung levels of test compound were determined by LC-MS analysis against analytical standards constructed into a standard curve in the test matrix. A lung to plasma ratio was determined as the ratio of the lung AUC in μg hr/g to the plasma AUC in μg hr/mL, where AUC is conventionally defined as the area under the curve of test compound concentration vs. time.

[7] = target: JAK3 (Homo sapiens (Human), UniProt P52333); assay: LanthaScreen JAK biochemical assay (JAK3); conditions: ATP at Km 1.6 μM; read-out: JAK 3 (pKi) (converted)
Chain of JAK3 (P52333 whole entry): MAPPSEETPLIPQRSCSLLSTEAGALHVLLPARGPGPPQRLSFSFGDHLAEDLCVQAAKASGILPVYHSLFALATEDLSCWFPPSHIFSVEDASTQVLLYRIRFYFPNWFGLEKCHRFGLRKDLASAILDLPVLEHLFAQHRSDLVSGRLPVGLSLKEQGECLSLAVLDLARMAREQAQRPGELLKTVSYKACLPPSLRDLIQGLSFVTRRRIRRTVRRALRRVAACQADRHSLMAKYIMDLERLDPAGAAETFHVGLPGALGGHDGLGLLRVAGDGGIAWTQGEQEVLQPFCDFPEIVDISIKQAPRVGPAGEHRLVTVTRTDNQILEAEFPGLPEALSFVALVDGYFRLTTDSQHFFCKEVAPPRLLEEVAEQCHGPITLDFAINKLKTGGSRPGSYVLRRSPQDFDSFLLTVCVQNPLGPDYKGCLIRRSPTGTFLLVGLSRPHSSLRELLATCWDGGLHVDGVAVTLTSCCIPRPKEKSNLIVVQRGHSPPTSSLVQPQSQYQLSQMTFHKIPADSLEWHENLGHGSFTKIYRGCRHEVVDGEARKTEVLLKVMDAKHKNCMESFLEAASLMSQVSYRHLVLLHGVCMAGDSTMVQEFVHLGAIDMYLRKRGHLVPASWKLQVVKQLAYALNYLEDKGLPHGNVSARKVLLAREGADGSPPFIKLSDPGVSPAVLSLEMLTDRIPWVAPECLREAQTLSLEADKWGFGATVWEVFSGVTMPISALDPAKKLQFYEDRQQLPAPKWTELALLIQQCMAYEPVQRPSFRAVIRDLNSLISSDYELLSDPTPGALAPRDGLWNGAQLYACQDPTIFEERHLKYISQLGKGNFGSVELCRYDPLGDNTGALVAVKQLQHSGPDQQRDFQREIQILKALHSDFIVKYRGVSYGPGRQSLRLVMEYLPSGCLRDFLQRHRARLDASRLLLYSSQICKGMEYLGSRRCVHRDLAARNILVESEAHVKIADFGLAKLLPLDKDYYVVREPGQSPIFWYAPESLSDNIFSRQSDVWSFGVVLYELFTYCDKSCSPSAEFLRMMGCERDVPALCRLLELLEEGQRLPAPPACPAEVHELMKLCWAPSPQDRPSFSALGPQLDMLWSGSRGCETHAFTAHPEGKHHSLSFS

Chain of JAK2 (O60674 whole entry): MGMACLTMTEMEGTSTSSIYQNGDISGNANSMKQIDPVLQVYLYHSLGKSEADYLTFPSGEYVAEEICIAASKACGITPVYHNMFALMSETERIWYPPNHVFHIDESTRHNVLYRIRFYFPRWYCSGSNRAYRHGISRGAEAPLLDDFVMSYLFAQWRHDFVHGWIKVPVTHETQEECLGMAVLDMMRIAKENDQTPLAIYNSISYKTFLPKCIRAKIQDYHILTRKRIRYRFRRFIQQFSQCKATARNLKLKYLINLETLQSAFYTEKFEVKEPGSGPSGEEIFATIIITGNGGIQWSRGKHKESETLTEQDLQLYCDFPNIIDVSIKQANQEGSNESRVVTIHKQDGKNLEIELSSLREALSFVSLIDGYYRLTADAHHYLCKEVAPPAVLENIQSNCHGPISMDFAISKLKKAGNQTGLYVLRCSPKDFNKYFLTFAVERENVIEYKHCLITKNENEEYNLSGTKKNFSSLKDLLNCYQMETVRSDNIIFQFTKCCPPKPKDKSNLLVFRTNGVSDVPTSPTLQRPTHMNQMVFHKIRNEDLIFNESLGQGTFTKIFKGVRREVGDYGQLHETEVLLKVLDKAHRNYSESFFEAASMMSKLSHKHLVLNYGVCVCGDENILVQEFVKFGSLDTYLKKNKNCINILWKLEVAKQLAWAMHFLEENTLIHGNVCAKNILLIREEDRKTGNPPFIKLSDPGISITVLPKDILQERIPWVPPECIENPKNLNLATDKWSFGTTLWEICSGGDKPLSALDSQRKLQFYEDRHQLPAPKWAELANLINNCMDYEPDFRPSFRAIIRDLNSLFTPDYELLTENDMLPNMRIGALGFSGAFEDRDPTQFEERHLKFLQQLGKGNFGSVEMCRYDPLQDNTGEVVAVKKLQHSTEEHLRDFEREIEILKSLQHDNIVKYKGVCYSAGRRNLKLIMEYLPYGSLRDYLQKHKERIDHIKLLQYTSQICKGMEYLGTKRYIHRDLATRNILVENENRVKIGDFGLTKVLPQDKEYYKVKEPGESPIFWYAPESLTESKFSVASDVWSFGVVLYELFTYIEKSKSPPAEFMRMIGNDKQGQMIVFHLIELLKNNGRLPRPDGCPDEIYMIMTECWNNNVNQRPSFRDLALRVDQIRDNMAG

Row | Compound | Ki [1] [nM] | IC50 [2] [nM] | Ki [3] [nM] | Percent Inhibition of Alternaria-induced BALF Eosinophils [4] [%] | inhibition in vivo at 500 µg/mL [5] [%] | Lung to Plasma ratio Assay 4 [6] | Ki [7] [nM] | BEAS-2B pIC50 [2] | pSTAT6 inhibition Assay 5 [5]
1 | CCc1cc(O)c(F)cc1-c1ccc2c(-c3nc4c([nH]3)CCN(C3CNC3)C4)n[nH]c2c1 [Example 2, 4-(3-(5-(azetidin-3-yl)-4,5,6,7-tetrahydro-1H-imidazo[4,5-c]pyridin-2-yl)-1H-indazol-6-yl)-5-ethyl-2-fluorophenol] | < 0.1 | 10 to 39.8 | 0.1 to 1 | 93 | 33 to 50 | C (C denotes a ratio between 10 and 50) |  |  | 
2 | CCc1cc(O)c(F)cc1-c1ccc2c(-c3nc4c([nH]3)CCN(C3CN(C5CC5)C3)C4)n[nH]c2c1 [Example 5, 4-(3-(5-(1-cyclopropylazetidin-3-yl)-4,5,6,7-tetrahydro-1H-imidazo[4,5-c]pyridin-2-yl)-1H-indazol-6-yl)-5-ethyl-2-fluorophenol] | < 0.1 | < 10 | 0.316 to 1 |  | > 65 | C (C denotes a ratio between 10 and 50) | 0.1 to 1 |  | 
3 | CCc1cc(O)c(F)cc1-c1ccc2c(-c3nc4c([nH]3)CCN(CC3CNC3)C4)n[nH]c2c1 [Example 14-7] | < 0.1 |  |  |  |  | A (A denotes a ratio >100) |  | B (B represents a pIC50 value between 7.4 and 8 (IC50 between 40 nM and 10 nM)) | B (B represents between 50% and 65% inhibition)
4 | CCc1cc(O)c(F)cc1-c1ccc2c(-c3nc4c([nH]3)CCN(CCN(C)CC)C4)n[nH]c2c1 [Example 9, 5-ethyl-4-(3-(5-(2-(ethyl(methyl)amino)ethyl)-4,5,6,7-tetrahydro-1H-imidazo[4,5-c]pyridin-2-yl)-1H-indazol-6-yl)-2-fluorophenol] | < 0.1 | < 10 | 0.316 to 1 |  | 50 to 65 | B (B denotes a ratio between 50 and 100) |  |  | 
5 | CCc1cc(O)c(F)cc1-c1ccc2c(-c3nc4c([nH]3)CCN(C3CN(C(C)C)C3)C4)n[nH]c2c1 [Example 3, 5-ethyl-2-fluoro-4-(3-(5-(1-isopropylazetidin-3-yl)-4,5,6,7-tetrahydro-1H-imidazo[4,5-c]pyridin-2-yl)-1H-indazol-6-yl)phenol] | < 0.1 | < 10 | 0.1 to 1 | 61 | > 65 | C (C denotes a ratio between 10 and 50) | 0.1 to 1 |  | 
6 | CCc1cc(O)c(F)cc1-c1ccc2c(-c3nc4c([nH]3)CCN(C[C@H]3COCCN3)C4)n[nH]c2c1 [Example 13, (S)-5-Ethyl-2-fluoro-4-(3-(5-(morpholin-3-ylmethyl)-4,5,6,7-tetrahydro-1H-imidazo[4,5-c]pyridin-2-yl)-1H-indazol-6-yl)phenol] | < 0.1 | < 10 | 0.316 to 1 | 82 | 33 to 50 | A (A denotes a ratio >100) | 0.1 to 1 |  | 
7 | CCc1cc(O)c(F)cc1-c1ccc2c(-c3nc4c([nH]3)CCN(C3CCN(C)CC3)C4)n[nH]c2c1 [Example 6, 5-Ethyl-2-fluoro-4-(3-(5-(1-methylpiperidin-4-yl)-4,5,6,7-tetrahydro-1H-imidazo[4,5-c]pyridin-2-yl)-1H-indazol-6-yl)phenol] | < 0.1 | < 10 | 0.1 to 1 | 88 | 50 to 65 | B (B denotes a ratio between 50 and 100) | 0.1 to 1 |  | 
8 | CCc1cc(O)c(F)cc1-c1ccc2c(-c3nc4c([nH]3)CCN(C3CN(C)C3)C4)n[nH]c2c1 [Example 1, 5-Ethyl-2-fluoro-4-(3-(5-(1-methylazetidin-3-yl)-4,5,6,7-tetrahydro-1H-imidazo[4,5-c]pyridin-2-yl)-1H-indazol-6-yl)phenol] | < 0.1 | < 10 |  | 98 | > 65 | B (B denotes a ratio between 50 and 100) |  |  | 
9 | CCc1cc(O)c(F)cc1-c1ccc2c(-c3nc4c([nH]3)CCN(CC(F)CN(C)C)C4)n[nH]c2c1 (stereo not shown) [Example 12, 4-(3-(5-(3-(dimethylamino)-2-fluoropropyl)-4,5,6,7-tetrahydro-1H-imidazo[4,5-c]pyridin-2-yl)-1H-indazol-6-yl)-5-ethyl-2-fluorophenol] | < 0.1 | < 10 | 0.316 to 1 |  | 33 to 50 | C (C denotes a ratio between 10 and 50) | 0.1 to 1 |  | 
10 | CCc1cc(O)c(F)cc1-c1ccc2c(-c3nc4c([nH]3)CCN(CCN(C)C)C4)n[nH]c2c1 [Example 7, 4-(3-(5-(2-(dimethylamino)ethyl)-4,5,6,7-tetrahydro-1H-imidazo[4,5-c]pyridin-2-yl)-1H-indazol-6-yl)-5-ethyl-2-fluorophenol] | < 0.1 | < 10 |  | 96 | > 65 | B (B denotes a ratio between 50 and 100) |  |  | 
11 | CCc1cc(O)c(F)cc1-c1ccc2c(-c3nc4c([nH]3)CCN(CCN(C)C(C)CC)C4)n[nH]c2c1 (stereo not shown) [Example 10, 4-(3-(5-(2-(sec-butyl(methyl)amino)ethyl)-4,5,6,7-tetrahydro-1H-imidazo[4,5-c]pyridin-2-yl)-1H-indazol-6-yl)-5-ethyl-2-fluorophenol] | < 0.1 | < 10 | 0.1 to 1 |  | 33 to 50 | B (B denotes a ratio between 50 and 100) | 0.1 to 1 |  | 
12 | CCc1cc(O)c(F)cc1-c1ccc2c(-c3nc4c([nH]3)CCN(C3CCN(C)C3)C4)n[nH]c2c1 (stereo not shown) [Example 9-2] | < 0.1 | < 10 | 0.316 to 1 |  |  |  |  |  | 
13 | CCc1cc(O)c(F)cc1-c1ccc2c(-c3nc4c([nH]3)CCN(CCN3CCC[C@@H]3C)C4)n[nH]c2c1 [Example 15, (S)-5-ethyl-2-fluoro-4-(3-(5-(2-(2-methylpyrrolidin-1-yl)ethyl)-4,5,6,7-tetrahydro-1H-imidazo[4,5-c]pyridin-2-yl)-1H-indazol-6-yl)phenol] | < 0.1 | < 10 | 0.316 to 1 |  | 50 to 65 | A (A denotes a ratio >100) | 0.1 to 1 |  | 
